Data on three compounds can be found in patent US8513161B2, “Enhancement of plant growth” (Valent Biosciences Corporation, priority 2007, dated 2013).

For one assay, the system named is soybean. As to the kind of experiment: Field study, seed treatment of soybean. In kind it is in vivo. The method, then:
(§1) For the field studies, the seed was treated with a seed treatment formulation containing clothianidin. The rate of clothianidin was dependent on the crop species. The seed treatment formulations were amended with the appropriate concentrations of either PESA or the sodium salt of PESA. Crops were planted and grown under standard agricultural practices, and evaluated at the times indicated. The sodium salt of PESA was prepared as described above, and was used in seed treatment either alone or in the presence of clothianidin. Soybean seed was treated with 0 or 50 grams of clothianidin/100 kg (220 pound) of seed and with 0, 22, 55, or 137.5 grams PESA salt/100 kg seed.

Assay [1] has as its system cotton. As to the kind of experiment: Continuous exposure pouch study, PESA salt and clothianidin on cotton. In kind it is in vivo. The method, then:
(§2) Seeds were placed in germination pouches consisting of germination paper hydrated with sterile water that was an insert in a gas-permeable 16×14 cm plastic pouch (CYG Pouch; Mega International, St. Paul, Minn.). In these examples, in pouch solution evaluation, clothianidin and PESA sodium salt were added to the sterile water in the pouch. Alternatively, imidacloprid or dinotefuran and PESA sodium salt were added to the sterile water in the pouch. The pouches were arranged in a completely randomized block design in growth racks and placed in 19-liter polycarbonate food storage containers (Rubbermaid Commercial Products, Winchester, Va.). The sealed containers were held in an upright growth cabinet maintained at 25 C with a 12 hour light: 12 hour dark photoperiod. After 6 days, the containers were removed from the growth cabinet, and the lengths of the roots and shoot were measured.

Another assay relates to maize. As to the kind of experiment: Field study, seed treatment of maize. In kind it is in vivo, Zea mays. How it is done: For the field studies, the seed was treated with a seed treatment formulation containing clothianidin. The rate of clothianidin was dependent on the crop species. The seed treatment formulations were amended with the appropriate concentrations of either PESA or the sodium salt of PESA. Crops were planted and grown under standard agricultural practices, and evaluated at the times indicated. The PESA or the sodium salt of PESA was prepared as described above, and was used in seed treatment either alone or in the presence of clothianidin. Maize (Zea mays) seed was treated with 0 or 0.25 milligrams of clothianidin/seed and with 0, 22, 55, or 137.5 grams PESA salt/100 kg seed.

In the next assay the test system is sorghum. Description: Field study, seed treatment of sorghum. In kind it is in vivo. The method, then: as §1, with “Sorghum” for “Soybean”, “200” for “50”
Assay [2] relates to cotton. As to the kind of experiment: Pouch assay of cotton after PESA salt and clothianidin seed treatments. In kind it is in vivo. As to conditions: seed treatment; for shoot length of cotton: control 3.7; for root length of cotton: control 9.6. The method, then: (§3) Seed was sieved with a screen of hole size appropriate to remove broken seeds and small trash. Cracked or otherwise damaged seeds were removed. The seed was well mixed, and 50 g samples were weighed into small plastic trays. Seed treatment slurries were made by adding measured amounts of the active ingredients to sufficient water to bring them up to a standard volume, typically 2 ml. A fungicide (Maxim XL; Syngenta Agricultural Products, Greensboro, N.C.), a polymeric binder (CF-Clear; Becker-Underwood, Ames, Iowa), and a colorant (Color Coat Red; Becker-Underwood, Ames, Iowa) were also included in the slurry at label rates. A small aliquot of this slurry was applied to the seed using the Hege 11 coater (Wintersteiger, Salt Lake City, Utah) with a six-inch bowl. The slurry was deposited drop-wise on the spinning disk atomizer using a syringe.
as §2

The next assay deals with canola. As to the kind of experiment: Field study, seed treatment of canola. In kind it is in vivo, Brassica napus. How it is done:
as §1, with “Canola (Brassica napus)” for “Soybean”, “400” for “50”

In assay [3] the test system is cotton. Description: Continuous exposure pouch study, PESA salt and imidacloprid on cotton. The class given is in vivo. How it is done:
as §2, with “measured. […] Root lengths of the control and combination treatment of imidacloprid with 100 mg/liter PESA salt were similar.” for “measured.”

For the next assay, the system named is rice. Description: Pouch study of rice, imidacloprid seed treatment with PESA salt solution in pouch. In kind it is in vivo. The settings on record: for shoot length of rice: control 3.3; for root length of rice: control 10.7. How it is done:
as §3, §2
Root lengths of the control and combination treatment of 200 grams imidacloprid/100 pounds of seed with 50 mg/liter PESA salt were similar.

Setting [4] is: clothianidin 182 g/100 pounds of seed alone.
The mark [5] stands for this setting: clothianidin 364 g/100 pounds of seed alone.
Setting [6] is: imidacloprid 200 g/100 pounds of seed alone.
[7] abbreviates: imidacloprid 400 g/100 pounds of seed alone.
[8] abbreviates: imidacloprid 800 g/100 pounds of seed alone.

As to `CN/C(=N\[N+](=O)[O-])NCc1cnc(Cl)s1` [Clothianidin, (E)-1-(2-chloro-1,3-thiazol-5-ylmethyl)-3-methyl-2-nitroguanidine, reference compound], the “average plant height of soybean” value with soybean (66 days after planting, clothianidin 50 g/100 kg seed alone, control 23.8) is on record as 21.6 inches. For the same compound, the “effect on soybean plant height” value in the assay on soybean (clothianidin alone, 50 g/100 kg seed) is listed as “reduced plant height as compared to the control”. Also, the “effect on cotton root length” value in the assay on cotton [1] (continuous exposure pouch, substance alone) is listed as “decreased the length of the root”; in the assay with cotton [2] (clothianidin alone 182 or 364 g/100 pounds of seed) it was “reduced cotton root length”. Also, the “effect on cotton shoot length” value in the assay with cotton [1] (continuous exposure pouch, clothianidin alone) is “not affected”; with cotton [2] (Table 2) it was “increased cotton shoot length”. The “shoot length of cotton” value in the assay on cotton [1] (in pouch, clothianidin 1000 mg/liter alone, control 6.1) is on record as 6.1 cm; with cotton [2] (setting [4]), 4.1 cm; in the assay with cotton [2] (setting [5]), 4.2 cm. Moreover, the “root length of cotton” value in the assay with cotton [1] (in pouch, clothianidin 1000 mg/liter alone, control 11.4) worked out at 8.9 cm; with cotton [2] (setting [4]) it was 7.8 cm; with cotton [2] (setting [5]), 7.9 cm. In addition, in the assay on maize (27 days after planting, clothianidin 0.25 mg/seed alone, control 3.6), the “vigor rating of maize plants, Vigor (1-5)” value is recorded as 3.1. Further, the “effect on maize plant vigor” value in the assay on maize (clothianidin alone, 0.25 mg/seed) is listed as “reduced plant vigor as compared to the control”. For the same compound, the “root dry weight of a sample of 10 sorghum plants” value in the assay with sorghum (73 days after planting, clothianidin 200 g/100 kg seed alone, control 148.5) was determined as 108.7 grams. For the same compound, the “effect on sorghum root dry weight” value in the assay with sorghum (clothianidin alone, 200 g/100 kg seed) was “reduced root dry weight as compared to the control”. The “vigor rating (1 = low and 5 = high) of canola plants” value in the assay with canola (19 days after planting, clothianidin 400 g/100 kg seed alone, control 3.8) is 2.5. In the assay with canola (clothianidin alone, 400 g/100 kg seed), the “effect on canola plant vigor” value is reported as “reduced plant vigor as compared to the control”.

Consider `O=[N+]([O-])N=C1NCCN1Cc1ccc(Cl)nc1` [Imidacloprid, (EZ)-1-(6-chloro-3-pyridylmethyl)-N-nitroimidazolidin-2-ylideneamine], for which the “effect on cotton root length” value with cotton [3] (continuous exposure pouch, imidacloprid 1000 mg/liter alone) was “decreased root length”. Further, the “effect on cotton shoot length” value in the assay with cotton [3] (imidacloprid alone) is reported as “not affected”. Besides, the “shoot length of cotton” value in the assay with cotton [3] (in pouch, imidacloprid 1000 mg/liter alone, control 6.2) was found to be 6.0 cm. In addition, in the assay with cotton [3] (in pouch, imidacloprid 1000 mg/liter alone, control 13.3), the “root length of cotton” value was 7.7 cm. Also, the “shoot length of rice” value with rice (setting [6]) turned out to be 3.6 cm; with rice (setting [7]) it was 3.3 cm; with rice (setting [8]), 3.6 cm. Moreover, the “root length of rice” value with rice (setting [6]) is listed as 9.6 cm; in the assay with rice (setting [7]), 8.9 cm; with rice (setting [8]), 8.3 cm. The “effect on rice root length” value in the assay on rice (seed treatment with imidacloprid alone) is “decreased the root length in a dose-dependent manner”.

For `O=C(O)CCC(=O)NCCc1ccccc1` [PESA, N-(2-phenylethyl)succinamic acid], the “safening of maize” value in the assay on maize (conclusion from Table 12) was “safened maize against clothianidin-induced vigor reduction”.
